Reference: EP4745135A1 (Gluetacs Therapeutics (Shanghai) Co., Ltd., priority 2023, dated 2025)

Key:
[1] = target: T1, CK1α (Homo sapiens, UniProt P48729+Q96SW2); experiment: Western blot, degradation of substrate protein in hPBMCs; assay type: cell-based
T1 construct: effects of the compounds of the present disclosure on the expression of target proteins in cells; endogenous in cells; host or cells: human PBMCs (Milecell Biotechnologies)

[2] = target: T2, IKZF1 (Homo sapiens, UniProt Q13422+Q96SW2); experiment: as above; assay type: cell-based
T2 construct: effects of the compounds of the present disclosure on the expression of target proteins in cells; endogenous in cells; host or cells: human PBMCs (Milecell Biotechnologies)
T2 sequence (Q13422 whole entry): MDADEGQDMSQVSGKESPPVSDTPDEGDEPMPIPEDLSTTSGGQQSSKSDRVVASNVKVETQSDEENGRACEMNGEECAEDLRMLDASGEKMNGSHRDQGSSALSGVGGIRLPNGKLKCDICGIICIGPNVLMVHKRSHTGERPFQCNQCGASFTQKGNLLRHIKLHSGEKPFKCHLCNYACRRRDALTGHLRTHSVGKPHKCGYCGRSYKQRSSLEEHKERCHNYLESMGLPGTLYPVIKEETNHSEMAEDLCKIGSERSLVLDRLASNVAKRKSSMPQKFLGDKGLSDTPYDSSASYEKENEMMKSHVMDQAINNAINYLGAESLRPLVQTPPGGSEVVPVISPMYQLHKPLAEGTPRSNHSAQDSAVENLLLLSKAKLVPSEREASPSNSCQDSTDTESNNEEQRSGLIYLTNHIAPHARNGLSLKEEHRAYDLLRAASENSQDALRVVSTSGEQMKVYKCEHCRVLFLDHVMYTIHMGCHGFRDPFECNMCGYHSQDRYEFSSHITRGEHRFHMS
T2 sequence (Q96SW2 whole entry): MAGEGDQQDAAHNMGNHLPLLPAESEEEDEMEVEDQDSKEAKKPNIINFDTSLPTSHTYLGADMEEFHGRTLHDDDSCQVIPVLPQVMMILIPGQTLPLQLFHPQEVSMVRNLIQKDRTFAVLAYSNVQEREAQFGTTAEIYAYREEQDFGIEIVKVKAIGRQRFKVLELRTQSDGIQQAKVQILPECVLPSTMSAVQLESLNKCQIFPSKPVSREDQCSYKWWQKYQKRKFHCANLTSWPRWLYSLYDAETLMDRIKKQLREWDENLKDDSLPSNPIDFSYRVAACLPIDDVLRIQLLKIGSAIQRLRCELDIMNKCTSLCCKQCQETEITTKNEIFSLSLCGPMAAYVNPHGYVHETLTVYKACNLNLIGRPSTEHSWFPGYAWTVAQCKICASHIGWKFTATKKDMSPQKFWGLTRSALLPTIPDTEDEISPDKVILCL
T2 sequence (Q16531 whole entry partner): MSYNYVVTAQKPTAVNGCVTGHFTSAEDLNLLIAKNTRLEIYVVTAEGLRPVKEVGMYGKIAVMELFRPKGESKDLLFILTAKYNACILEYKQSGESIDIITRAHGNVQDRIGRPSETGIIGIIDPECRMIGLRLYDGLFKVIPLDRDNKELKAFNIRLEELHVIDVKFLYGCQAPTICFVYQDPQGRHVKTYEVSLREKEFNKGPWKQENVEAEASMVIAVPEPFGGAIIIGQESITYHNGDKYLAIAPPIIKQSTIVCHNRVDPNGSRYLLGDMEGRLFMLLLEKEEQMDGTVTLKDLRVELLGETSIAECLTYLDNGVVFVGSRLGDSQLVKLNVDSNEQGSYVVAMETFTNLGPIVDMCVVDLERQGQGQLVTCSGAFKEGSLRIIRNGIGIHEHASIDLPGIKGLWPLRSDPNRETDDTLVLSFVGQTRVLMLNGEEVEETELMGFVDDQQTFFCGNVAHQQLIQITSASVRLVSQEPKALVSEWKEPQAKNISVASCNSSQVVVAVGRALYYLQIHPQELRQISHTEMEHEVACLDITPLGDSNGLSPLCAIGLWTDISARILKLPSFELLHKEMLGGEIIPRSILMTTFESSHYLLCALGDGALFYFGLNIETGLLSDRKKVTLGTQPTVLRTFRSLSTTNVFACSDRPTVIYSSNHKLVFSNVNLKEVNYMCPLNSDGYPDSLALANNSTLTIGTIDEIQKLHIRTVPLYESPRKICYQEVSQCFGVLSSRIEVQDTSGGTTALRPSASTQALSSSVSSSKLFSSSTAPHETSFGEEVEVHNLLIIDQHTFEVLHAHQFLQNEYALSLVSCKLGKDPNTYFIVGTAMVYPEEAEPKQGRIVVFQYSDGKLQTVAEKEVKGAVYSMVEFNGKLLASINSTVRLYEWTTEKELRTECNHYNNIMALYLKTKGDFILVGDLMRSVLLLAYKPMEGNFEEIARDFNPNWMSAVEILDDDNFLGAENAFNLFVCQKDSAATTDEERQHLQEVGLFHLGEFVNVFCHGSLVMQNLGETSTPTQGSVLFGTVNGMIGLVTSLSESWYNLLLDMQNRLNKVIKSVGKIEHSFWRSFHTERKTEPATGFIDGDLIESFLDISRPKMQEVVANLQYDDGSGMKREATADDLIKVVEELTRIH

[3] = target: T3, WEE1 (Homo sapiens, UniProt P30291+Q96SW2); experiment: as above; assay type: cell-based
T3 construct: effects of the compounds of the present disclosure on the expression of target proteins in cells; endogenous in cells; host or cells: human PBMCs (Milecell Biotechnologies)
T3 sequence (P30291 whole entry): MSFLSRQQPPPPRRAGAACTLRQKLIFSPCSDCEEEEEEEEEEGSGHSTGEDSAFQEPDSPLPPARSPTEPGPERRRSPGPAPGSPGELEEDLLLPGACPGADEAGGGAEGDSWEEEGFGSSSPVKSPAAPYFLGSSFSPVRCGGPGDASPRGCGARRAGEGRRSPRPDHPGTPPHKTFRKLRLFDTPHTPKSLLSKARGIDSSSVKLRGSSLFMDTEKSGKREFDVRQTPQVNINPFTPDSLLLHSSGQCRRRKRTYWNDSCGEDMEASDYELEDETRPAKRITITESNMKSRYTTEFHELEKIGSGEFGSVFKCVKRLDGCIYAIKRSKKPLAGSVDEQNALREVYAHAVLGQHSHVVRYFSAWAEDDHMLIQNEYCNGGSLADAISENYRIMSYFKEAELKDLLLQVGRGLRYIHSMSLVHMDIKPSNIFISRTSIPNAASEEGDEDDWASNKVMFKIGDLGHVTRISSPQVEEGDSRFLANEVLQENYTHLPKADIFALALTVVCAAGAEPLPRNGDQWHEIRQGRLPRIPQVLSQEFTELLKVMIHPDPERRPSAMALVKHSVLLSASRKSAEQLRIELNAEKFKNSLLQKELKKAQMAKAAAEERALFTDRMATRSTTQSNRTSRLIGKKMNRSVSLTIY
T3 sequence (Q96SW2 whole entry): as the sequence (Q96SW2 whole entry) above
T3 sequence (Q16531 whole entry partner): as the sequence (Q16531 whole entry partner) above

[4] = target: T4, IKZF2 (Homo sapiens, UniProt Q96SW2+Q9UKS7); experiment: as above; assay type: cell-based
T4 construct: effects of the compounds of the present disclosure on the expression of target proteins in cells; endogenous in cells; host or cells: human PBMCs (Milecell Biotechnologies)
T4 sequence (Q9UKS7 whole entry): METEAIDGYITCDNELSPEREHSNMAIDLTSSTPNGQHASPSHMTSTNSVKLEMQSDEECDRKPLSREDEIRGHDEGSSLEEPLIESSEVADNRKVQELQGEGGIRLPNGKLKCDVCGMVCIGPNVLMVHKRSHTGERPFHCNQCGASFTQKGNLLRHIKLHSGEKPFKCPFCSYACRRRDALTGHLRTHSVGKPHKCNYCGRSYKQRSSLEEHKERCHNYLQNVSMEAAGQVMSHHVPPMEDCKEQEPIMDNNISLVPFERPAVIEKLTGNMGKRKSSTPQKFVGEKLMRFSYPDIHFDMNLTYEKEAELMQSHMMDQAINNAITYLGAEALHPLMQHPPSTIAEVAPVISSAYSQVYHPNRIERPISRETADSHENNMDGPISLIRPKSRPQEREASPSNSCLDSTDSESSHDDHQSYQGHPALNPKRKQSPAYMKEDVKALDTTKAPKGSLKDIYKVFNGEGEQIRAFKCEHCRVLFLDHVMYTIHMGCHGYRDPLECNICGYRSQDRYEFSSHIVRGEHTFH
T4 sequence (Q96SW2 whole entry): as the sequence (Q96SW2 whole entry) above
T4 sequence (Q16531 whole entry partner): as the sequence (Q16531 whole entry partner) above

[5] = target: T5, IKZF3 (Homo sapiens, UniProt Q96SW2+Q9UKT9); experiment: as above; assay type: cell-based
T5 construct: effects of the compounds of the present disclosure on the expression of target proteins in cells; endogenous in cells; host or cells: human PBMCs (Milecell Biotechnologies)
T5 sequence (Q9UKT9 whole entry): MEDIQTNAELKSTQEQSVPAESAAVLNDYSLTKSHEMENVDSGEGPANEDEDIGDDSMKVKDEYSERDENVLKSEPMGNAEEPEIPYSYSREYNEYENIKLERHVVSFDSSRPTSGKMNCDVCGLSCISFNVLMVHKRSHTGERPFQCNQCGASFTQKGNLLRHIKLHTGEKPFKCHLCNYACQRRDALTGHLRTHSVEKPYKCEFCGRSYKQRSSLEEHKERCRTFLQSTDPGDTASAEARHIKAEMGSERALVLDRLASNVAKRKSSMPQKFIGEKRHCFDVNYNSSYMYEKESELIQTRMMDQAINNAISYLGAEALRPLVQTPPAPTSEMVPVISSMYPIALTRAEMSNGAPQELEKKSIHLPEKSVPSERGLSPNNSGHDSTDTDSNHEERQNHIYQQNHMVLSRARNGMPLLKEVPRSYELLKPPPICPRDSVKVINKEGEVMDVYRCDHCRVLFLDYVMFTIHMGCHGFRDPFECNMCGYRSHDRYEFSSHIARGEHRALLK
T5 sequence (Q96SW2 whole entry): as the sequence (Q96SW2 whole entry) above
T5 sequence (Q16531 whole entry partner): as the sequence (Q16531 whole entry partner) above

[6] = test system: GSPT1; experiment: as above; assay type: cell-based, Human
[7] = target: T6, human Cereblon WT GST-tagged protein (Homo sapiens, UniProt Q96SW2); experiment: CRBN-binding affinity, HTRF (CEREBLON BINDING kit); details: for inhibition at 0.5 µM: read-out: Inhibition Rate at 0.5 µM (%); for inhibition at 2 µM: read-out: Inhibition Rate at 2 µM (%)
T6 construct: purchased CISBIO 64BDCRBNPEH
T6 sequence (Q96SW2 whole entry): as the sequence (Q96SW2 whole entry) above

[8] = test system: Human breast cancer cell (MCF-7); experiment: Tumor cell proliferation inhibition (CellTiter-Meiluncell luminescent cell viability assay); details: MCF7, 96 h; for inhibition at 0.01 µM: read-out: Inhibition Rate at 10 nM (%); for inhibition at 0.5 µM: read-out: Inhibition Rate at 500 nM (%)
[9] = test system: Human multiple myeloma cell (MM.1S); experiment: as above; details: for inhibition at 0.01 µM / inhibition at 0.5 µM: Homo sapiens, MM1.S, 96 h; for inhibition at 0.01 µM: read-out: Inhibition Rate at 10 nM (%); for inhibition at 0.5 µM: read-out: Inhibition Rate at 500 nM (%)
[10] = test system: Human acute T lymphocytic leukemia cell (Molt4); experiment: as above; details: MOLT-4, 96 h; for inhibition at 0.01 µM: read-out: Inhibition Rate at 10 nM (%); for inhibition at 0.5 µM: read-out: Inhibition Rate at 500 nM (%)
Procedure: The tumor cells used herein were cultured in a cell culture medium listed in table 2 at 37°C in an incubator with 5% CO2. Prior to experimentation, all cell lines used were correctly identified by STR profiling, and tested negative for mycoplasma contamination using a mycoplasma detection kit through routine screenings.
The IC50 values of the compounds of the present disclosure (including the compounds in Table 1 and Examples) were determined using the CellTiter-Meiluncell Luminescent Cell Viability Assay Kit from Dalian Meilun Biotech Co., Ltd. The detailed procedure is as follows: Tumor cells were seeded in 96-well cell culture plates at the densities specified in Table 3. On the following day, the test compounds of the present disclosure were subjected to serial dilution. The dilution can be performed according to one of the following two methods: • (1) The first dilution method: The test compounds of the present disclosure (including the compounds in Table 1 and Examples) were subjected to 5-fold serial dilutions starting from a highest concentration of 2000 µM, resulting in a total of 9 concentrations from high to low (2000, 400, 80, 16, 3.2, 0.64, 0.128, 0.0256, 0.00512 µM). Subsequently, 0.5 µL of the test compound dilution was transferred into the 96-well plate containing the cells, with each well containing 100 µL of cell culture medium. […] Into the 96-well plate, the diluted test compounds and corresponding detection reagents were added, resulting in final test compound concentrations of 500 nM and 10 nM, respectively. The experimental procedure is described below using the diluted 2 µM test compound as an example.
0.5 µL of the aforementioned diluted compound of the present disclosure (including the compounds in Table 1 and Examples) was added to the seeded cells in 100 µL of medium, yielding a final test compound concentration of 10 nM. After the cells were treated with the compounds of the present disclosure for a specified period, the cell viability assay reagent was added to the culture medium according to the kit's instructions to determine cell viability. […] All controls were treated using the same procedure as the compounds of the present disclosure. The growth inhibition curves for the compounds of the present disclosure were plotted using Prism GraphPad software, and the IC50 values were calculated therefrom.

[11] = test system: Human myeloid monocytic leukemia cell (MV-4-11); experiment: as above; details: MV4-11, 96 h; for inhibition at 0.01 µM: read-out: Inhibition Rate at 10 nM (%); for inhibition at 0.5 µM: read-out: Inhibition Rate at 500 nM (%)
[12] = Western blot, 24 hours of compound treatment, compounds tested at 50 nM and 500 nM (concentration for the table not stated)
[13] = 24 hours treatment, compounds at 50 nM and 500 nM (concentration behind the class not stated)

T1 sequence (P48729 whole entry): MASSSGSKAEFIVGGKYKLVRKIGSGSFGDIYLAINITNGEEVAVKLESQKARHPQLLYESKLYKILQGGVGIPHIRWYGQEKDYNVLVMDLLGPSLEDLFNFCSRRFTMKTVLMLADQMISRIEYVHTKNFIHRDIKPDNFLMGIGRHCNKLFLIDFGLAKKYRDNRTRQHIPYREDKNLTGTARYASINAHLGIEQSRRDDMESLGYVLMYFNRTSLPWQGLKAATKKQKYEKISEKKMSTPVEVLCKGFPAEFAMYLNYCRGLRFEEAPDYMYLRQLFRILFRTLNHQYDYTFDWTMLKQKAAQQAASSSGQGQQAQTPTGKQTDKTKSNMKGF
T1 sequence (Q96SW2 whole entry): as the sequence (Q96SW2 whole entry) above
T1 sequence (Q16531 whole entry partner): as the sequence (Q16531 whole entry partner) above

| SMILES | inhibition at 0.5 µM [7] | inhibition at 2 µM [7] | inhibition at 0.01 µM [8] | inhibition at 0.5 µM [8] | CK1α substrate protein remaining % [1, 13] | IKZF 1 substrate protein remaining % [2, 13] | Wee1 substrate protein remaining % [3, 13] | IKZF2 substrate protein remaining % [4, 13] | IKZF3 substrate protein remaining % [5, 13] | GSPT1 substrate protein remaining % [6, 13] | inhibition at 0.01 µM [9] | inhibition at 0.01 µM [10] | inhibition at 0.5 µM [10] | inhibition at 0.01 µM [11] | inhibition at 0.5 µM [11] | other results |
| --- | --- | --- | --- | --- | --- | --- | --- | --- | --- | --- | --- | --- | --- | --- | --- | --- |
| O=C1CCC(N2Cc3c(CN4CCC(n5c(=O)[nH]c6cc(F)ccc65)CC4)cccc3C2=S)C(=O)N1 (centres unmarked) [GT-08843, 3-(4-((4-(5-fluoro-2-oxo-2,3-dihydro-1H-benzo[d]imidazol-1-yl)piperidin-1-yl)methyl)-1-thioxoisoindolin-2-yl)piperidine-2,6-dione] | 60 to 80% | 80 to 100% | 60 to 70% | 60 to 70% | – | – | – | – | – | – | – | – | – | – | – | CK1α substrate protein remaining % [1, 12]: B (80%< substrate protein remaining %≤ 100%); IKZF 1 substrate protein remaining % [2, 12]: B (80%< substrate protein remaining %≤ 100%); Wee1 substrate protein remaining % [3, 12]: A (0% ≤ substrate protein remaining % ≤ 80%); IKZF2 substrate protein remaining % [4, 12]: B (80%< substrate protein remaining %≤ 100%); IKZF3 substrate protein remaining % [5, 12]: B (80%< substrate protein remaining %≤ 100%); GSPT1 substrate protein remaining % [6, 12]: B (80%< substrate protein remaining %≤ 100%) |
| O=C1CCC(N2Cc3c(CN4CC=C(c5n[nH]c6cc(F)ccc56)CC4)cccc3C2=S)C(=O)N1 (centres unmarked) [GT-08850, 3-(4-((4-(6-fluoro-1H-indazol-3-yl)-3,6-dihydropyridin-1(2H)-yl)methyl)-1-thioxoisoindolin-2-yl)piperidine-2,6-dione] | 60 to 80% | 80 to 100% | 40 to 50% | 50 to 60% | – | – | – | – | – | – | – | – | – | – | – | CK1α substrate protein remaining % [1, 12]: B (80%< substrate protein remaining %≤ 100%); IKZF 1 substrate protein remaining % [2, 12]: B (80%< substrate protein remaining %≤ 100%); Wee1 substrate protein remaining % [3, 12]: B (80%< substrate protein remaining %≤ 100%); IKZF2 substrate protein remaining % [4, 12]: B (80%< substrate protein remaining %≤ 100%); IKZF3 substrate protein remaining % [5, 12]: B (80%< substrate protein remaining %≤ 100%); GSPT1 substrate protein remaining % [6, 12]: A (0% ≤ substrate protein remaining % ≤ 80%) |
| O=C1CCC(N2Cc3c(CN4CC(n5cnc6cc(F)ccc65)C4)cccc3C2=S)C(=O)N1 (centres unmarked) [GT-08861, 3-(4-((3-(5-fluoro-1H-benzo[d]imidazol-1-yl)azetidin-1-yl)methyl)-1-thioxoisoindolin-2-yl)piperidine-2,6-dione] | 40 to 53% | 80 to 100% | 30 to 40% | 40 to 50% | B (80%< substrate protein remaining %≤ 100%) | B (80%< substrate protein remaining %≤ 100%) | A (0% ≤ substrate protein remaining % ≤ 80%) | B (80%< substrate protein remaining %≤ 100%) | B (80%< substrate protein remaining %≤ 100%) | B (80%< substrate protein remaining %≤ 100%) | – | – | – | – | – | – |
| Cc1nc(N2CCN(Cc3cccc4c3CN(C3CCC(=O)NC3=O)C4=S)CC2)c2c3c(sc2n1)CCCC3 (centres unmarked) [GT-08923, 3-(4-((4-(2-methyl-5,6,7,8-tetrahydrobenzo[4,5]thieno[2,3-d]pyrimidin-4-yl)piperazin-1-yl)methyl)-1-thioxoisoindolin-2-yl)piperidine-2,6-dione] | 30 to 40% | 80 to 100% | 70 to 80% | 70 to 80% | B (80%< substrate protein remaining %≤ 100%) | B (80%< substrate protein remaining %≤ 100%) | A (0% ≤ substrate protein remaining % ≤ 80%) | B (80%< substrate protein remaining %≤ 100%) | B (80%< substrate protein remaining %≤ 100%) | B (80%< substrate protein remaining %≤ 100%) | – | – | – | – | – | – |
| Cc1nc(C2CCN(Cc3cccc4c3CN(C3CCC(=O)NC3=O)C4=S)CC2)c2c(-c3ccccc3)csc2n1 (centres unmarked) [GT-08931, 3-(4-((4-(2-methyl-5-phenylthieno[2,3-d]pyrimidin-4-yl)piperidin-1-yl)methyl)-1-thioxoisoindolin-2-yl)piperidine-2,6-dione] | 40 to 53% | 80 to 100% | 30 to 40% | 60 to 70% | – | – | – | – | – | – | – | – | – | – | – | – |
| O=C1CCC(N2Cc3cc(CN4CCN(c5nccc(Cl)c5Br)CC4)ccc3C2=S)C(=O)N1 (centres unmarked) [GT-09245, 3-(5-((4-(3-bromo-4-chloropyridin-2-yl)piperazin-1-yl)methyl)-1-thioxoisoindolin-2-yl)piperidine-2,6-dione] | 60 to 80% | 80 to 100% | – | – | B (80%< substrate protein remaining %≤ 100%) | A (0% ≤ substrate protein remaining % ≤ 80%) | B (80%< substrate protein remaining %≤ 100%) | A (0% ≤ substrate protein remaining % ≤ 80%) | B (80%< substrate protein remaining %≤ 100%) | A (0% ≤ substrate protein remaining % ≤ 80%) | 40 to 50% | 10 to 20% | 50 to 60% | 60 to 80% | 80 to 100% | inhibition at 0.5 µM [9]: 70 to 80% |
| O=C1CCC(N2Cc3cc(CN4CCC(c5c[nH]c6ncccc56)CC4)ccc3C2=S)C(=O)N1 (centres unmarked) [GT-09268, 3-(5-((4-(1H-pyrrolo[2,3-b]pyridin-3-yl)piperidin-1-yl)methyl)-1-thioxoisoindolin-2-yl)piperidine-2,6-dione] | 53 to 60% | 80 to 100% | – | – | B (80%< substrate protein remaining %≤ 100%) | B (80%< substrate protein remaining %≤ 100%) | B (80%< substrate protein remaining %≤ 100%) | B (80%< substrate protein remaining %≤ 100%) | B (80%< substrate protein remaining %≤ 100%) | A (0% ≤ substrate protein remaining % ≤ 80%) | 30 to 40% | 40 to 50% | 40 to 50% | 5 to 10% | 60 to 80% | Inhibition Rate at 500 nM (%) ([9]; MM.1S, 500 nM, 96 hours): la7 |
| O=C1CCC(N2Cc3cc(CN4CCC(c5n[nH]c6cc(F)ccc56)CC4)ccc3C2=S)C(=O)N1 (centres unmarked) [GT-09269, 3-(5-((4-(6-fluoro-1H-indazol-3-yl)piperidin-1-yl)methyl)-1-thioxoisoindolin-2-yl)piperidine-2,6-dione] | 80 to 100% | 80 to 100% | – | – | B (80%< substrate protein remaining %≤ 100%) | B (80%< substrate protein remaining %≤ 100%) | B (80%< substrate protein remaining %≤ 100%) | B (80%< substrate protein remaining %≤ 100%) | B (80%< substrate protein remaining %≤ 100%) | A (0% ≤ substrate protein remaining % ≤ 80%) | 5 to 10% | 30 to 40% | 80 to 100% | 10 to 18% | 80 to 100% | inhibition at 0.5 µM [9]: 80 to 100% |
